Marks after values point to notes of the source that are not given here.
Experiments:
In vitro clearance [1] = type: in vitro ADME, rat; details: for Predicted CLhep: rat (r)
In vitro clearance [2] = type: in vitro ADME, human; details: for Predicted CLhep: human (h)
hM5 = target: T1, hM5 (Homo sapiens, UniProt P08912); experiment: Calcium mobilization assay with hM5-CHO cells, EC80 acetylcholine; type: cell-based; details: for hM5 IC50: antagonist
T1 sequence (P08912 1-532): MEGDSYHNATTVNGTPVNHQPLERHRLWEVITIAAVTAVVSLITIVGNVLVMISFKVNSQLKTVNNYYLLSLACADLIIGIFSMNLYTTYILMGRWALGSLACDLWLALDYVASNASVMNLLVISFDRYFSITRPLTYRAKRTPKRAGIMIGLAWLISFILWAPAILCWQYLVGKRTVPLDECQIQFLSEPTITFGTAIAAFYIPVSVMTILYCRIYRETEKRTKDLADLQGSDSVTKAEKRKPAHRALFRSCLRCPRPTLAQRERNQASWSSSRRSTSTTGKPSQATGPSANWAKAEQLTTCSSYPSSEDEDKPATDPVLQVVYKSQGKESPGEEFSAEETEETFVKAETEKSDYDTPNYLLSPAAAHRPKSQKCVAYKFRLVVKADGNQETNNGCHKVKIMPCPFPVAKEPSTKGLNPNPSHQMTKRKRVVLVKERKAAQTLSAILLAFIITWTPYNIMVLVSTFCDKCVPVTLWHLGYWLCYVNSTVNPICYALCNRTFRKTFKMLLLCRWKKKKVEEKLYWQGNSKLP

hM4 = target: T2, hM4 (Homo sapiens, UniProt P08173); experiment: Subtype selectivity, hM4; type: cell-based
T2 sequence (P08173 1-479): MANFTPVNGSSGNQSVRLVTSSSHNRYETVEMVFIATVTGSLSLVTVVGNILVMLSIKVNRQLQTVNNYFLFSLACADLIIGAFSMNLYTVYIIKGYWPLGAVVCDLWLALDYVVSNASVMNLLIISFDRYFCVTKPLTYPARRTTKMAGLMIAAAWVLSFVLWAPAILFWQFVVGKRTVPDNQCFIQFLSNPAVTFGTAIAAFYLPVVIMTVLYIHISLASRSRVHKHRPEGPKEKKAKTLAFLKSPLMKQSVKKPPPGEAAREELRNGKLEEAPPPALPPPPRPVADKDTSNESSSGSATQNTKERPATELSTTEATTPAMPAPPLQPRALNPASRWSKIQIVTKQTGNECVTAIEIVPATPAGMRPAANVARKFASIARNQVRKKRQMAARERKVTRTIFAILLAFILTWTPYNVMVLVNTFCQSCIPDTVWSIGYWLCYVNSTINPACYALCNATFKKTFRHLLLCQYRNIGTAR

hM2 = target: T3, hM2 (Homo sapiens, UniProt P08172); experiment: Subtype selectivity, hM2; type: cell-based; details: printed as hM2-4
T3 sequence (P08172 1-466): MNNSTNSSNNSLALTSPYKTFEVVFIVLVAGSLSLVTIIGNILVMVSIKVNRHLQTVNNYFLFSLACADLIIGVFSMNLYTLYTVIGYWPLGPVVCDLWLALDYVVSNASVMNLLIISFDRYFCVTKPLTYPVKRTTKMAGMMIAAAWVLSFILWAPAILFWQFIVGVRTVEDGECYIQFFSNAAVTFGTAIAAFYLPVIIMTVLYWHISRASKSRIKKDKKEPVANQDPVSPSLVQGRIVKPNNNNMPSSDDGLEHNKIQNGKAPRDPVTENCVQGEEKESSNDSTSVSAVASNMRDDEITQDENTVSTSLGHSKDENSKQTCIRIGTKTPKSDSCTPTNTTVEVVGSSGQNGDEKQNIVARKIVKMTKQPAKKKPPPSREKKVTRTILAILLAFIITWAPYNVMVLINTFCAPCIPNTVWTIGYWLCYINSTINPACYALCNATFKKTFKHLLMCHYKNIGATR

hM3 = hM3 (Homo sapiens, UniProt P20309); experiment: Subtype selectivity, hM3; type: cell-based; details: printed as hM2-4
hM3, sequence (P20309 whole entry): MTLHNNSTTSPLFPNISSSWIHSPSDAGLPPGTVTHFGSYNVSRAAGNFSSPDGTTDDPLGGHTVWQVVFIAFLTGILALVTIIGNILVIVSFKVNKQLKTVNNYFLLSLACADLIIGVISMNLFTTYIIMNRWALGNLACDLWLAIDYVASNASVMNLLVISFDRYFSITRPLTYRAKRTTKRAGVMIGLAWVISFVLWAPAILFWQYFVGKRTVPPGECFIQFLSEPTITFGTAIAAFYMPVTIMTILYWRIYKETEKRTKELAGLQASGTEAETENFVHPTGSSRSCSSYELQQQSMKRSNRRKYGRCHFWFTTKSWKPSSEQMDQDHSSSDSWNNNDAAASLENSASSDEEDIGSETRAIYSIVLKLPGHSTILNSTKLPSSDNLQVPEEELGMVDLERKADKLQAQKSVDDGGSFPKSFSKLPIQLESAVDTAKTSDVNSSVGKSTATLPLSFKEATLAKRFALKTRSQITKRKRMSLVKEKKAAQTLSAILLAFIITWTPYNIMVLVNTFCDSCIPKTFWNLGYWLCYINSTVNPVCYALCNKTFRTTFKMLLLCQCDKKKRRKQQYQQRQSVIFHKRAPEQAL

SMILES | Predicted CLhep (In vitro clearance [1]) | Predicted CLhep (In vitro clearance [2]) | hM5 ACh Min (hM5) | also measured
C[C@@H]1CN(S(=O)(=O)c2ccc3c(c2)CCO3)CC[C@@H]1C(=O)Nc1ccc2scnc2c1 (racemic) [(rac)-22] | 62 mL/min/kg | 19 mL/min/kg | 3^c % | 
C[C@H]1CN(S(=O)(=O)c2ccc3c(c2)CCO3)CC[C@@H]1C(=O)Nc1ccc2scnc2c1 (racemic) [(rac)-23] | 61 mL/min/kg | 17 mL/min/kg | 3^c % | 
C[C@@H]1C[C@H](C(=O)Nc2ccc3scnc3c2)CCN1S(=O)(=O)c1ccc2c(c1)CCO2 (racemic) [(rac)-24] | 62 mL/min/kg | 19 mL/min/kg | 2^c % | 
C[C@@H]1C[C@@H](C(=O)Nc2ccc3scnc3c2)CCN1S(=O)(=O)c1ccc2c(c1)CCO2 (racemic) [(rac)-25] | 62 mL/min/kg | 18 mL/min/kg |  | 
CC1COc2ccc(S(=O)(=O)N3CCC(C(=O)Nc4ccc5scnc5c4)CC3)cc21 (racemic) [(rac)-26] | 66 mL/min/kg | 19 mL/min/kg |  | 
Cc1nn(C)cc1S(=O)(=O)N1CC[C@H](C(=O)Nc2ccc3scnc3c2)[C@@H](F)C1 (racemic) [(rac)-30a] | 55 mL/min/kg | 5 mL/min/kg |  | 
Cn1ncc(S(=O)(=O)N2CC[C@H](C(=O)Nc3ccc4scnc4c3)[C@@H](F)C2)c1Cl (racemic) [(rac)-30b] | 29 mL/min/kg | 4 mL/min/kg |  | 
Cc1ncc(S(=O)(=O)N2CC[C@H](C(=O)Nc3ccc4scnc4c3)[C@@H](F)C2)s1 (racemic) [(rac)-30c] | 37 mL/min/kg | 5 mL/min/kg |  | 
O=C(Nc1ccc2occc2c1)C1CCN(S(=O)(=O)c2ccc3c(c2)CCO3)CC1 [28a] |  |  | inactive | hM5 IC50 (hM5): inactive
O=C(Nc1ccc2ncnn2c1)C1CCN(S(=O)(=O)c2ccc3c(c2)CCO3)CC1 [28b] |  |  | inactive | hM5 IC50 (hM5): inactive
O=C(Nc1ccc2nncn2c1)C1CCN(S(=O)(=O)c2ccc3c(c2)CCO3)CC1 [28c] |  |  | inactive | hM5 IC50 (hM5): inactive
O=C(Nc1cnc2sccc2c1)C1CCN(S(=O)(=O)c2ccc3c(c2)CCO3)CC1 [28d] |  |  | inactive | hM5 IC50 (hM5): inactive
O=C(Nc1ccc2nccnc2c1)C1CCN(S(=O)(=O)c2ccc3c(c2)CCO3)CC1 [28e] |  |  | inactive | hM5 IC50 (hM5): inactive
O=C(Nc1ccc2cccnc2c1)C1CCN(S(=O)(=O)c2ccc3c(c2)CCO3)CC1 [28f] | 64 mL/min/kg | 17 mL/min/kg |  | 
O=C(Nc1ccc2snnc2c1)C1CCN(S(=O)(=O)c2ccc3c(c2)CCO3)CC1 [28g] | 64 mL/min/kg | 18 mL/min/kg |  | 
O=C(Nc1ccc2scnc2c1)C1CCN(S(=O)(=O)c2ccc3ncsc3c2)CC1 [29a] | 38 mL/min/kg | 13 mL/min/kg |  | CLint scaled (In vitro clearance [1]; rat): 38 mL/min/kg; CLint scaled (In vitro clearance [2]; human): 13 mL/min/kg
O=C(Nc1ccc2scnc2c1)C1CCN(S(=O)(=O)c2ccc3ncccc3c2)CC1 [29b] | 53 mL/min/kg | 10 mL/min/kg |  | 
O=C(Nc1ccc2scnc2c1)C1CCN(S(=O)(=O)c2ccc(Cl)nc2)CC1 [29c] | 33 mL/min/kg | 11 mL/min/kg | 3^b % | 
Cc1ccc(S(=O)(=O)N2CCC(C(=O)Nc3ccc4scnc4c3)CC2)cn1 [29d] | 27 mL/min/kg | 4 mL/min/kg |  | 
O=C(Nc1ccc2scnc2c1)C1CCN(S(=O)(=O)c2cccnc2)CC1 [29e] | 52 mL/min/kg | 10 mL/min/kg | 2^b % | 
Cc1nn(C)cc1S(=O)(=O)N1CCC(C(=O)Nc2ccc3scnc3c2)CC1 [29f] | 28 mL/min/kg |  |  | 
O=C(Nc1ccc2scnc2c1)C1CCN(S(=O)(=O)c2ccc(Cl)s2)CC1 [compound 4] |  |  |  | hM4 IC50 (hM4): inactive; hM2 IC50 (hM2): inactive; hM3 IC50 (hM3): inactive
Cn1ccnc1NC(=O)C1CCN(S(=O)(=O)c2ccc3c(c2)CCO3)CC1 [compound 6] |  |  |  | hM5 IC50 (hM5): inactive
Cc1nc2cc(NC(=O)C3CCN(S(=O)(=O)c4ccc5c(c4)CCO5)CC3)ccc2s1 [compound 20] | 60 mL/min/kg | 16 mL/min/kg | 19^c % | 

Source: paper PMC10939060 (Bioorganic & medicinal chemistry letters, 2022)
